Data from PubChem BioAssay (NCI).
“And” between values parts separate entries of the source, which are not always exact repeats. Equal entries are not always repeated.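 96-well plates; 48 h exposure; 5 concentrations. Endpoints by linear interpolation between flanking doses. Not reached: highest tested concentration assigned. The concentration for 50% growth inhibition is given as GI50. At the TGI there is no net growth.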

Assays:
Experiment in all cases: NCI-60 cell line screen, 48 h
UO-31 renal = system: UO-31 renal
COLO 205 colon = system: COLO 205 colon
SF-539 CNS = system: SF-539 CNS
CAKI-1 renal = system: CAKI-1 renal
MDA-MB-435 = system: MDA-MB-435
SNB-19 CNS = system: SNB-19 CNS
HL-60(TB) leukemia = system: HL-60(TB) leukemia
HCC-2998 colon = system: HCC-2998 colon
MCF7 breast = system: MCF7 breast
UACC-62 melanoma = system: UACC-62 melanoma

SMILES	GI50 (UO-31 renal)	TGI (UO-31 renal)	GI50 (COLO 205 colon) [µM]	TGI (COLO 205 colon) [µM]	GI50 (SF-539 CNS)	TGI (SF-539 CNS)	GI50 (CAKI-1 renal)	TGI (CAKI-1 renal)	GI50 (MDA-MB-435)	TGI (MDA-MB-435)	GI50 (SNB-19 CNS)	TGI (SNB-19 CNS)	GI50 (HL-60(TB) leukemia)	TGI (HL-60(TB) leukemia)	GI50 (HCC-2998 colon)	TGI (HCC-2998 colon)	GI50 (MCF7 breast)	TGI (MCF7 breast)	GI50 (UACC-62 melanoma)	TGI (UACC-62 melanoma)
Nc1nc(OCc2cc(Br)cs2)c2[nH]cnc2n1	11.1 µM	60.4 µM	34	> 100	18.2 µM	62.6 µM	9.94 µM	79.6 µM	29.9 µM	> 100 µM	37.6 µM	> 100 µM	27.9 µM	> 100 µM	36.2 µM	> 100 µM	25.7 µM	> 100 µM	16.3 µM	59.7 µM
Cc1ccccc1-n1ncc(C(=O)c2ccccc2)c1N	> 25 µM	> 25 µM	> 25	> 25	> 25 µM	> 25 µM	> 25 µM	> 25 µM	> 25 µM	> 25 µM	> 25 µM	> 25 µM	> 25 µM	> 25 µM	> 25 µM	> 25 µM	> 25 µM	> 25 µM	> 25 µM	> 25 µM
CS(=O)(=O)Nc1ccc(-c2cc(-c3ccccc3)cc(C(N)=O)c2N)cc1	14.7 µM	> 25 µM	> 25	> 25	> 25 µM	> 25 µM	> 22.6 µM	> 25 µM	> 25 µM	> 25 µM	> 25 µM	> 25 µM	> 23.4 µM	> 25 µM	> 25 µM	> 25 µM	> 20.5 µM	> 25 µM	> 25 µM	> 25 µM
CCCCCCCCCCCCCC1=NCCN1CCO	2.46 µM	6.16 µM	2.11	3.97	1.95 µM	3.94 µM	2.34 µM	7.27 µM	2.97 µM	9.07 µM	9.59 µM	26.8 µM	3.11 µM	> 100 µM	4.03 µM	16.5 µM	2.4 µM	6.89 µM	1.96 µM	3.95 µM
C=CC(C1=CC(=O)C(OC)=CC1=O)c1ccccc1 (stereo unspecified)		29.6 µM		36.6		29.9 µM		31.7 µM		28.3 µM		29.4 µM		6.72 µM		30.7 µM		26.2 µM		29 µM
COC1CCN(C(=O)c2cc(Cc3n[nH]c(=O)c4ccccc34)ccc2F)CC1	84.5 µM	> 100 µM	> 100	> 100	> 100 µM	> 100 µM	32.3 µM	> 100 µM	> 100 µM	> 100 µM	57.6 µM	> 100 µM	> 85.3 µM	> 100 µM	> 100 µM	> 100 µM	60.8 µM	> 100 µM	40 µM	> 100 µM
COc1cc(OC)c(/C=C\c2ccnc3ccccc23)c(OC)c1		3.55 µM		8.2		12.4 µM		22.2 µM		1.78 µM		18.2 µM		0.963 µM		23.9 µM		21.4 µM		14.6 µM
O=C(CN(/C=C/C(=O)C(F)(F)F)c1ccc(Cl)cc1)c1ccccc1	13.5 µM	29.9 µM	15.3	> 100	13.1 µM	27.8 µM	0.933 µM	22.8 µM	10.8 µM	39 µM	33 µM	> 100 µM	17.3 µM	66.7 µM	7.93 µM	21.1 µM	> 100 µM	> 100 µM	11.7 µM	26.4 µM
c1cc2[nH]ncc2cc1-c1nc2ccc3[nH]ncc3c2c2c1CCCC2	1.33 µM	4.54 µM	1.36	8.36	1.53 µM	5.4 µM	0.434 µM	5.62 µM	0.315 µM	3.74 µM	2.35 µM	11 µM	0.512 µM	3.09 µM	1.98 µM	9.79 µM	0.736 µM	11.2 µM	0.425 µM	3.53 µM
O=C1Nc2c(C(F)(F)F)cccc2[C@@]1(c1ccc(O)cc1)c1ccc(OC(F)(F)F)cc1	0.0143 µM	0.028 µM	< 0.01	< 0.01	0.0161 µM	0.0446 µM	0.0364 µM	0.971 µM	7.92 µM	21.9 µM	0.0285 µM	0.0974 µM	5.59 µM	23.8 µM	< 0.01 µM	0.0131 µM	< 0.01 µM	0.0269 µM	0.0213 µM	0.071 µM
Clc1ccc2c(c1)N(c1ncnc3ccc(-c4cnc5[nH]ccc5c4)cc13)CC2	0.484 µM	16.7 µM	3.21	> 100	6.8 µM	48.7 µM	3 µM	25.7 µM	0.295 µM	1.2 µM	4.48 µM	35.5 µM	1.26 µM	> 100 µM	11.3 µM	68.9 µM	0.54 µM	> 100 µM	0.982 µM	21.1 µM
C=CC(=O)NCc1cccc(Nc2ncc(Br)c(NCCCNC(=O)C3CCC3)n2)c1	0.256 µM and 0.26 µM	1.11 µM and 0.916 µM	0.403	2.01	0.369 µM and 0.475 µM	2.03 µM and 2.72 µM	0.279 µM and 0.262 µM	1.45 µM and 1.48 µM	2.33 µM and 2.14 µM	8.47 µM and 5.75 µM	1.07 µM and 1.38 µM	12.5 µM and 18.3 µM	0.821 µM and 0.893 µM	5.96 µM and > 25 µM	1.83 µM and 3.03 µM	5.27 µM and 10.1 µM	1.88 µM and 0.537 µM	12.5 µM and 4.77 µM	2.3 µM and 2.9 µM	5.23 µM and 7.37 µM
COc1ccc(C(=O)COC(=O)[C@H](C[Se][Se]C[C@H](NC(=O)c2ccc(Br)cc2F)C(=O)OCC(=O)c2ccc(OC)cc2)NC(=O)c2ccc(Br)cc2F)cc1	0.579 µM	1.68 µM	2.56	7.95	0.321 µM	0.976 µM	1 µM	2.97 µM	1.51 µM	5.05 µM	0.427 µM	4.9 µM	2.72 µM	12.2 µM	0.617 µM	1.85 µM	1.52 µM	4.1 µM	1.06 µM	2.86 µM
COC(=O)[C@]12CC[C@@H](C)[C@H](C)[C@@H]1C1=CC[C@@H]3[C@@]4(C)C(C=O)=C[C@@](C)(COC(C)=O)C4=CC[C@@]3(C)[C@]1(C)CC2	3.61 µM	16 µM	2.34	5.8	10.5 µM	26 µM	3.66 µM	17 µM	4.28 µM	16.4 µM	5.25 µM	25.6 µM	2.68 µM	6.49 µM	3.32 µM	12.4 µM	2.99 µM	12.5 µM	4.11 µM	18.1 µM
O=[N+]([O-])c1ccc(Sc2ncnc3nc[nH]c23)c2nonc12	1.6 µM	2.95 µM	2.17	4.67	4.53 µM	21.5 µM	5.97 µM	33.7 µM	3.04 µM	17.1 µM	20.8 µM	41.9 µM	2.8 µM	6.03 µM	4.6 µM	27.6 µM	1.72 µM	12.2 µM	4.91 µM	17.3 µM
O=C1c2ccccc2S(=O)(=O)N1CSC(=S)N1CCCCC1	> 100 µM	> 100 µM	> 100	> 100	> 100 µM	> 100 µM	> 100 µM	> 100 µM	> 100 µM	> 100 µM	> 100 µM	> 100 µM	0.0329 µM	> 100 µM	> 100 µM	> 100 µM		> 100 µM		> 57.3 µM
Cc1ccc(-c2cc3c(SCC(=O)Nc4cc(C(F)(F)F)ccc4Cl)nccn3n2)cc1	> 100 µM	> 100 µM	> 100	> 100	8.5 µM	> 100 µM	> 100 µM	> 100 µM	> 100 µM	> 100 µM	30.9 µM	> 100 µM	> 100 µM	> 100 µM	> 100 µM	> 100 µM	> 100 µM	> 100 µM	> 100 µM	> 100 µM
COc1ccc(C(SCC(N)C(=O)O)(c2ccccc2)c2ccccc2)cc1 (stereo unspecified)	13.6 µM	> 100 µM	0.3	15.8	0.0721 µM	15.1 µM	0.457 µM	> 100 µM	0.0306 µM		0.0594 µM	> 100 µM	0.136 µM		0.246 µM	12.2 µM	0.0385 µM	> 100 µM	0.171 µM	> 56.7 µM
CCOC(=O)c1c(C)n2c(=O)cc(C)c3c(O)c(O)cc1c32	5.7 µM	> 100 µM	13.1	> 100	16.6 µM	55.3 µM	2.2 µM	> 100 µM	14.5 µM	> 100 µM	8.72 µM	> 100 µM	2.92 µM	17.2 µM	40.8 µM	> 100 µM	6.61 µM	> 100 µM	8.9 µM	29.3 µM
COc1cc(-c2nc3ccccc3s2)ccc1NC(=O)COc1ccc(Cl)cc1	1.49 µM	> 100 µM	6.45	> 100	61.6 µM	> 100 µM	6.95 µM	> 100 µM	8.16 µM	> 100 µM	3.71 µM	19.4 µM	> 100 µM	> 100 µM	18.6 µM	> 100 µM	5.05 µM	> 100 µM	2.74 µM	13 µM
Cc1cc(O)ccc1C1=NN(c2ccc(S(C)(=O)=O)cc2)C(=O)CC1	14.8 µM	> 100 µM	6.62	74.4	13.2 µM	> 100 µM	2.79 µM	16.5 µM	1.28 µM	5.83 µM	50.4 µM	> 100 µM	3.52 µM	48.4 µM	46.7 µM	> 100 µM	20.7 µM	> 100 µM	4 µM	> 100 µM
CNC(=O)OCc1c2ccncc2c(C)c2c1[nH]c1ccccc12		0.966 µM		1.82		0.784 µM		1.25 µM		1.58 µM		7.98 µM		0.92 µM		1.08 µM		1.24 µM		0.869 µM
Clc1cccc(Cl)c1C1CSc2ccccc2N=C1c1ccccc1 (stereo unspecified)	1.42 µM	4.57 µM	12.3	33.5	6.08 µM	18.9 µM	10.6 µM	29.8 µM	3.59 µM	13.6 µM	11.5 µM	24.6 µM	8.2 µM	38.7 µM	4.74 µM	15.5 µM	0.595 µM	11.6 µM	5.9 µM	19.6 µM
C/C(=C\CCc1ccoc1)CC/C=C(\C)CCCN1CCOCC1	10.3 µM	24.6 µM	3.15	12.4	5.49 µM	19.7 µM	3.65 µM	14.9 µM	3.48 µM	13.7 µM	9.27 µM	23.6 µM	2.5 µM	5.5 µM	10.9 µM	23.8 µM	2.71 µM	11.2 µM	5.02 µM	18.2 µM
Nc1nc2c(s1)CCc1c-2c(Br)n(Cc2ccccc2)c1Br	1.8 µM	4.41 µM	2.53	5.13	15.4 µM	29.2 µM	3.14 µM	12.1 µM	8.57 µM	30.7 µM	23.3 µM	86.4 µM	5.64 µM	37.1 µM	18 µM	33.7 µM	11.9 µM	28.6 µM	10.4 µM	24.7 µM
O=C1C(=O)c2c(nc3ccc(Br)cn23)-c2ccccc21	0.48 µM	1.24 µM	1.78	3.55	0.472 µM	1.01 µM	1.52 µM	3.01 µM	0.185 µM	0.334 µM	1.41 µM	2.72 µM	0.242 µM	0.624 µM	1.93 µM	3.51 µM	0.385 µM	1.08 µM	0.365 µM	1.27 µM
